Experimental data: PubChem BioAssay AID256 (DTP/NCI, 2004)
“And” between values parts separate entries of the source, which are not always exact repeats. Equal entries are not always repeated. Toxic doses and inconclusive results are not listed.

Tested on: CD2F1 mice, L1210 leukemia ip, survival T/C
Test: NCI In Vivo Anticancer Drug Screen. Data for tumor model L1210 Leukemia (intraperitoneal) in CD2F1 (CDF1) mice
Conditions: higher = longer survival
Procedure, shortened: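 Mice carrying a transplanted tumor received test compound or vehicle alone. The value is the measurement in the treated group divided by that in the vehicle-treated control group.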

[1] = endpoint: mean survival time, dose: 100.0 mg/kg/injection, schedule: Q01DX001 (ip), vehicle: saline
[2] = endpoint: mean survival time, dose: 200.0 mg/kg/injection, schedule: Q01DX001 (ip), vehicle: saline
[3] = endpoint: mean survival time, dose: 50.0 mg/kg/injection, schedule: Q01DX009 (ip), vehicle: saline with Tween-80
[4] = endpoint: mean survival time, dose: 100.0 mg/kg/injection, schedule: Q01DX009 (ip), vehicle: saline with Tween-80
[5] = endpoint: mean survival time, dose: 5.0 mg/kg/injection, schedule: Q01DX001 (ip), vehicle: saline
[6] = endpoint: mean survival time, dose: 10.0 mg/kg/injection, schedule: Q01DX001 (ip), vehicle: saline
[7] = endpoint: mean survival time, dose: 20.0 mg/kg/injection, schedule: Q01DX001 (ip), vehicle: saline
[8] = endpoint: mean survival time, dose: 100.0 mg/kg/injection, schedule: Q04DX003 (ip), vehicle: saline with Tween-80
[9] = endpoint: mean survival time, dose: 200.0 mg/kg/injection, schedule: Q04DX003 (ip), vehicle: saline with Tween-80
[10] = endpoint: mean survival time, dose: 400.0 mg/kg/injection, schedule: Q04DX003 (ip), vehicle: saline with Tween-80
[11] = endpoint: mean survival time, dose: 50.0 mg/kg/injection, schedule: Q01DX009 (ip), vehicle: Klucel (hydroxypropylcellulose) (HPC)
[12] = endpoint: mean survival time, dose: 100.0 mg/kg/injection, schedule: Q01DX009 (ip), vehicle: Klucel (hydroxypropylcellulose) (HPC)
[13] = endpoint: mean survival time, dose: 200.0 mg/kg/injection, schedule: Q01DX009 (ip), vehicle: Klucel (hydroxypropylcellulose) (HPC)
[14] = endpoint: median survival time, dose: 50.0 mg/kg/injection, schedule: Q01DX009 (ip), vehicle: saline with Tween-80

SMILES: CSc1nc(N)n2nccc2n1
- T/C (endpoint: median survival time, dose: 50.0 mg/kg/injection, schedule: Q01DX005 (ip), vehicle: saline): 102 % of control
- T/C (endpoint: median survival time, dose: 100.0 mg/kg/injection, schedule: Q01DX005 (ip), vehicle: saline): 95 % of control
- T/C (endpoint: median survival time, dose: 200.0 mg/kg/injection, schedule: Q01DX005 (ip), vehicle: saline): 95 % of control

SMILES: CC(=O)O[C@@H]1[C@@H](O)[C@H]2O[C@@H]3C=C(C)CC[C@]3(CO)[C@]1(C)[C@@]21CO1
- T/C (endpoint: mean survival time, dose: 1.25 mg/kg/injection, schedule: Q01DX009 (ip), vehicle: saline with Tween-80): 103 % of control
- T/C (endpoint: mean survival time, dose: 2.5 mg/kg/injection, schedule: Q01DX009 (ip), vehicle: saline with Tween-80): 115 % of control
- T/C (endpoint: mean survival time, dose: 5.0 mg/kg/injection, schedule: Q01DX009 (ip), vehicle: saline with Tween-80): 115 % of control

SMILES: c1ccc2c(-c3nn[nH]n3)nccc2c1
- T/C [1]: 106 % of control
- T/C [2]: 113 % of control

SMILES: CC(Br)C(=O)OC1C=CCCC1 (stereo not given)
- T/C [3]: 97 % of control
- T/C [4]: 101 % of control

SMILES: C=C(C)C1(Cc2ccccc2)C(=O)NC(=S)NC1=O
- T/C [5]: 102 % of control
- T/C [6]: 102 % of control
- T/C [7]: 104 % of control

SMILES: O=C(OCC1OC(n2cnc(=O)[nH]c2=O)C(OC(=O)c2ccccc2)C1OC(=O)c1ccccc1)c1ccccc1 (stereo not given)
- T/C (endpoint: mean survival time, dose: 1.25 mg/kg/injection, schedule: Q04DX003 (ip), vehicle: saline): 96 % of control
- T/C (endpoint: mean survival time, dose: 2.5 mg/kg/injection, schedule: Q04DX003 (ip), vehicle: saline): 101 % of control
- T/C (endpoint: mean survival time, dose: 5.0 mg/kg/injection, schedule: Q04DX003 (ip), vehicle: saline): 98 % of control
- T/C (endpoint: mean survival time, dose: 10.0 mg/kg/injection, schedule: Q04DX003 (ip), vehicle: saline): 101 % of control
- T/C (endpoint: mean survival time, dose: 20.0 mg/kg/injection, schedule: Q04DX003 (ip), vehicle: saline): 98 % of control
- T/C (endpoint: mean survival time, dose: 40.0 mg/kg/injection, schedule: Q04DX003 (ip), vehicle: saline): 98 % of control

SMILES: CCc1c(C)c(=O)n(C)c2ccccc12
- T/C [8]: 98 % of control
- T/C [9]: 101 % of control
- T/C [10]: 102 % of control

SMILES: CC(=O)OC1CCC2(C)C(=CC=C3C2=CCC2(C)C3CCC2C(C)/C=C\C(C)C(C)C)C1 (stereo not given)
- T/C [11]: 96 % of control
- T/C [12]: 93 % of control
- T/C [13]: 101 % of control

SMILES: O=C(O)COc1cc(Cl)c(Cl)cc1Cl (tested in a mixture with another compound)
- T/C (endpoint: mean survival time, dose: 100.0 mg/kg/injection, schedule: Q04DX002 (ip), vehicle: saline with Tween-80): 96 % of control
- T/C (endpoint: mean survival time, dose: 200.0 mg/kg/injection, schedule: Q04DX002 (ip), vehicle: saline with Tween-80): 114 % of control

SMILES: CS(=O)(=O)[O-].CS(=O)(=O)[O-].NC1CCCCC1N.[Pt+4] (stereo not given)
- T/C (endpoint: mean survival time, dose: 0.16 mg/kg/injection, schedule: Q04DX003 (ip), vehicle: other): 124 % of control
- T/C (endpoint: mean survival time, dose: 0.62 mg/kg/injection, schedule: Q01DX009 (ip), vehicle: dextrose): 119 % of control
- T/C (endpoint: mean survival time, dose: 5.0 mg/kg/injection, schedule: Q01DX009 (ip), vehicle: dextrose): 93 % of control

SMILES: CC(C)(C)C#C/C(=N\Nc1ccc([N+](=O)[O-])cc1[N+](=O)[O-])c1ccccc1
- T/C (endpoint: mean survival time, dose: 100.0 mg/kg/injection, schedule: Q01DX001 (ip), vehicle: saline with Tween-80): 94 % of control
- T/C (endpoint: mean survival time, dose: 200.0 mg/kg/injection, schedule: Q01DX001 (ip), vehicle: saline with Tween-80): 89 % of control
- T/C (endpoint: mean survival time, dose: 400.0 mg/kg/injection, schedule: Q01DX001 (ip), vehicle: saline with Tween-80): 86 % of control

SMILES: COc1ccc(CNc2ccc([N+](=O)[O-])c3nonc23)cc1
- T/C [11]: 94 % of control
- T/C [12]: 86 % of control
- T/C [13]: 94 % of control

SMILES: [Cl][Pt][Cl].c1ccc([AsH](CC[AsH](c2ccccc2)c2ccccc2)c2ccccc2)cc1
- T/C (endpoint: mean survival time, dose: 25.0 mg/kg/injection, schedule: Q04DX003 (ip), vehicle: saline with Tween-80): 94 % of control
- T/C (endpoint: mean survival time, dose: 50.0 mg/kg/injection, schedule: Q04DX003 (ip), vehicle: saline with Tween-80): 88 % of control
- T/C [8]: 96 % of control

SMILES: O=S(=O)(CCl)OCCCl
- T/C (endpoint: mean survival time, dose: 6.25 mg/kg/injection, schedule: Q01DX009 (ip), vehicle: saline with Tween-80): 101 % of control
- T/C (endpoint: mean survival time, dose: 12.5 mg/kg/injection, schedule: Q01DX009 (ip), vehicle: saline with Tween-80): 115 % of control and 117 % of control
- T/C (endpoint: mean survival time, dose: 25.0 mg/kg/injection, schedule: Q01DX009 (ip), vehicle: saline with Tween-80): 120 % of control
- T/C [3]: 193 % of control
- T/C [4]: 86 % of control
- T/C (endpoint: median survival time, dose: 6.25 mg/kg/injection, schedule: Q01DX009 (ip), vehicle: saline with Tween-80): 101 % of control and 108 % of control
- T/C (endpoint: median survival time, dose: 12.5 mg/kg/injection, schedule: Q01DX009 (ip), vehicle: saline with Tween-80): 100 % of control and 104 % of control
- T/C [14]: 120 % of control
- T/C (endpoint: median survival time, dose: 100.0 mg/kg/injection, schedule: Q01DX009 (ip), vehicle: saline with Tween-80): 173 % of control

SMILES: O=C(O)C(O)Cn1ccccc1=O (stereo not given)
- T/C (endpoint: mean survival time, dose: 50.0 mg/kg/injection, schedule: Q01DX001 (ip), vehicle: saline): 104 % of control
- T/C [1]: 96 % of control
- T/C [2]: 101 % of control

SMILES: CCC12CCCN3CCc4c(n(c5ccccc45)C(O)(C(=O)OC)C1)C32 (stereo not given)
- T/C [5]: 108 % of control
- T/C [6]: 101 % of control
- T/C [7]: 102 % of control
- T/C (endpoint: mean survival time, dose: 40.0 mg/kg/injection, schedule: Q01DX001 (ip), vehicle: saline): 101 % of control

SMILES: c1ccc([Si](c2ccccc2)(c2cccs2)c2cccs2)cc1
- T/C [8]: 102 % of control
- T/C [9]: 106 % of control
- T/C [10]: 114 % of control

SMILES: Cc1cc(Oc2ccc(Cl)cc2NC(=O)Nc2ccc(Cl)c(Cl)c2)c(S(=O)(=O)O)cc1Cl
- T/C (endpoint: mean survival time, dose: 100.0 mg/kg/injection, schedule: Q01DX001 (ip), vehicle: acetone): 94 % of control
- T/C (endpoint: mean survival time, dose: 200.0 mg/kg/injection, schedule: Q01DX001 (ip), vehicle: acetone): 94 % of control
- T/C (endpoint: mean survival time, dose: 400.0 mg/kg/injection, schedule: Q01DX001 (ip), vehicle: acetone): 93 % of control

SMILES: Cc1ccc2[nH]c3c(c2c1)CSCC3
- T/C [4]: 104 % of control
- T/C (endpoint: mean survival time, dose: 200.0 mg/kg/injection, schedule: Q01DX009 (ip), vehicle: saline with Tween-80): 102 % of control
- T/C (endpoint: mean survival time, dose: 400.0 mg/kg/injection, schedule: Q01DX009 (ip), vehicle: saline with Tween-80): 102 % of control

SMILES: O=c1[nH]cccc1O
- T/C [14]: 103 % of control and 104 % of control and 108 % of control
- T/C (endpoint: median survival time, dose: 62.5 mg/kg/injection, schedule: Q01DX009 (ip), vehicle: saline with Tween-80): 102 % of control
- T/C (endpoint: median survival time, dose: 66.7 mg/kg/injection, schedule: Q03HX027 (ip), vehicle: saline with Tween-80): 96 % of control
- T/C (endpoint: median survival time, dose: 125.0 mg/kg/injection, schedule: Q01DX009 (ip), vehicle: saline with Tween-80): 113 % of control
- T/C (endpoint: median survival time, dose: 133.0 mg/kg/injection, schedule: Q03HX027 (ip), vehicle: saline with Tween-80): 103 % of control
- T/C (endpoint: median survival time, dose: 250.0 mg/kg/injection, schedule: Q01DX009 (ip), vehicle: saline with Tween-80): 116 % of control
- T/C (endpoint: median survival time, dose: 266.0 mg/kg/injection, schedule: Q03HX027 (ip), vehicle: saline with Tween-80): 155 % of control

SMILES: CC1CC([NH-])C([NH-])C(C)(C)C1.[Cl][Pt+2][Cl] (stereo not given)
- T/C (endpoint: median survival time, dose: 10.0 mg/kg/injection, schedule: Q04DX003 (ip), vehicle: Klucel (hydroxypropylcellulose) (HPC)): 117 % of control
- T/C (endpoint: median survival time, dose: 50.0 mg/kg/injection, schedule: Q04DX003 (ip), vehicle: Klucel + Tween-80): 153 % of control
- T/C (endpoint: median survival time, dose: 100.0 mg/kg/injection, schedule: Q04DX003 (ip), vehicle: Klucel + Tween-80): 155 % of control

SMILES: COc1ccc(C(=O)O)c([N+](=O)[O-])c1
- T/C [8]: 98 % of control
- T/C [9]: 98 % of control
- T/C [10]: 98 % of control

SMILES: COc1ccc(OC)c(/C=C/c2cnnc3ccccc23)c1
- T/C (endpoint: mean survival time, dose: 18.75 mg/kg/injection, schedule: Q04DX003 (ip), vehicle: Klucel (hydroxypropylcellulose) (HPC)): 102 % of control
- T/C (endpoint: mean survival time, dose: 37.5 mg/kg/injection, schedule: Q04DX003 (ip), vehicle: Klucel (hydroxypropylcellulose) (HPC)): 104 % of control
- T/C (endpoint: mean survival time, dose: 75.0 mg/kg/injection, schedule: Q04DX003 (ip), vehicle: Klucel (hydroxypropylcellulose) (HPC)): 114 % of control
- T/C (endpoint: mean survival time, dose: 150.0 mg/kg/injection, schedule: Q04DX003 (ip), vehicle: Klucel (hydroxypropylcellulose) (HPC)): 104 % of control
- T/C (endpoint: mean survival time, dose: 300.0 mg/kg/injection, schedule: Q04DX003 (ip), vehicle: Klucel (hydroxypropylcellulose) (HPC)): 108 % of control

SMILES: CC(C)CC(NC(=O)CN)C(=O)O (stereo not given)
- T/C (endpoint: mean survival time, dose: 100.0 mg/kg/injection, schedule: Q04DX002 (ip), vehicle: saline): 93 % of control
- T/C (endpoint: mean survival time, dose: 200.0 mg/kg/injection, schedule: Q04DX002 (ip), vehicle: saline): 96 % of control
- T/C (endpoint: mean survival time, dose: 400.0 mg/kg/injection, schedule: Q04DX002 (ip), vehicle: saline): 107 % of control
